Measured values reported in patent US6686355B2, “Biphenyl sulfonamides useful as matrix metalloproteinase inhibitors” (Warner-Lambert Company, priority 2001, dated 2004).

Tests used:
Type in all cases: biochemical
[1] = biological target: T1, MMP-2FL (full length Gelatinase A) (Homo sapiens, UniProt P08253); test: Thiopeptolide hydrolysis assay, MMP-2FL; details: thiopeptolide substrate, HEPES pH 7.0, 22° C.
T1 sequence (P08253 110-660): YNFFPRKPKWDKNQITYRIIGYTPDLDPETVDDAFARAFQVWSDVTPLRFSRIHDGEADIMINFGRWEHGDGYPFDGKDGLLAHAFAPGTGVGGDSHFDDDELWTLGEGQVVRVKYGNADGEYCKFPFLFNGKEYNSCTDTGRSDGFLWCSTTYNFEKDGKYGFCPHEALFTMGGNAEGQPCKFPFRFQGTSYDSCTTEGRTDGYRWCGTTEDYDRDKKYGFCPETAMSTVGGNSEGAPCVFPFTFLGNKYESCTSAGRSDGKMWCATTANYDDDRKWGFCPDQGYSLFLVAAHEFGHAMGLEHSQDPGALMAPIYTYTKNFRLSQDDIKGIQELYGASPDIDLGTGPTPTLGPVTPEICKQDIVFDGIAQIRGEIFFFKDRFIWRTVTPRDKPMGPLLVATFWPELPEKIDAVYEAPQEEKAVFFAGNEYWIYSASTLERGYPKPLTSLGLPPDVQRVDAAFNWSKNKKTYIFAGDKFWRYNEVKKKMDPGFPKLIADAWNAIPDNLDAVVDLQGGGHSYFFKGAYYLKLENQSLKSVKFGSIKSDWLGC
Description: (§1) The assays measure the amount by which a test compound reduces the hydrolysis of a thiopeptolide substrate catalyzed by a matrix metalloproteinase enzyme. Such assays are described in detail by Ye et al., in Biochemistry, 1992;31(45):11231-11235, which is incorporated herein by reference.
(§2) Thiopeptolide substrates show virtually no decomposition or hydrolysis at or below neutral pH in the absence of a matrix metalloproteinase enzyme. A typical thiopeptolide substrate commonly utilized for assays is Ac-Pro-Leu-Gly-thioester-Leu-Leu-Gly-OEt. A 100 μL assay mixture will contain 50 mM of N-2-hydroxyethylpiperazine-N′-2-ethanesulfonic acid buffer (“HEPES”) at pH 7.0, 10 mM CaCl2, 100 μM thiopeptolide substrate, and 1 mM 5,5″-dithio-bis-(2-nitro-benzoic acid) (DTNB). The thiopeptolide substrate concentration may be varied from, for example, 10 to 800 μM to obtain Km and Kcat values. The change in absorbance at 405 nm is monitored on a Thermo Max microplate reader (Molecular Devices, Menlo Park, Calif.) at room temperature (22° C.). The calculation of the amount of hydrolysis of the thiopeptolide substrate is based on E412=13600 M^−1 cm^−1 for the DTNB-derived product 3-carboxy4-nitrothiophenoxide. Assays are carried out with and without matrix metalloproteinase inhibitor compounds, and the amount of hydrolysis is compared for a determination of inhibitory activity of the test compounds.
(§3) Several representative compounds have been evaluated for their ability to inhibit various matrix metalloproteinase enzymes. In Table I, MMP-1FL refers to full length interstitial collagenase; MMP-2FL refers to full length Gelatinase A; MMP-3CD refers to the catalytic domain of stromelysin-1; MMP-7FL refers to full length matrilysin; MMP-9FL refers to full length Gelatinase B; MMP-13CD refers to the catalytic domain of collagenase 3; and MMP-14CD refers to the catalytic domain of MMP-14. Test compounds were evaluated at various concentrations in order to determine their respective IC50 values, the micromolar concentration of compound required to cause a 50% inhibition of the catalytic activity of the respective enzyme.

[2] = biological target: MMP-9FL (full length Gelatinase B) (Homo sapiens, UniProt P14780); test: Thiopeptolide hydrolysis assay, MMP-9FL; details: thiopeptolide substrate, HEPES pH 7.0, 22° C.
Description: as §1, §2, §3

[3] = biological target: MMP-13CD (catalytic domain of collagenase 3) (Homo sapiens, UniProt P45452); test: Thiopeptolide hydrolysis assay, MMP-13CD; details: thiopeptolide substrate, HEPES pH 7.0, 22° C.
Description: as §1, §2, §3

[4] = biological target: MMP-3CD (catalytic domain of stromelysin-1) (Homo sapiens, UniProt P08254); test: Thiopeptolide hydrolysis assay, MMP-3CD; details: thiopeptolide substrate, MES pH 6.0
Description: as §1, §2, §3
It should be appreciated that the assay buffer used with MMP-3CD was 50 mM of 2-morpholinoethanesulfonic acid monohydrate (“MES”) at pH 6.0 rather than the HEPES buffer at pH 7.0 described above.

Sequence of MMP-3CD (catalytic domain of stromelysin-1) (P08254 100-272 limits assumed): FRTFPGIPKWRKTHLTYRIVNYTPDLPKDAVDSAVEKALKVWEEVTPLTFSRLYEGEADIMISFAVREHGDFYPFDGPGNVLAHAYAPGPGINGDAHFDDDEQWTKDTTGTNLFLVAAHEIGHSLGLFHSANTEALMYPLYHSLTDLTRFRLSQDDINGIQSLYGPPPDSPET
Sequence of MMP-9FL (full length Gelatinase B) (P14780 94-707, species assumed): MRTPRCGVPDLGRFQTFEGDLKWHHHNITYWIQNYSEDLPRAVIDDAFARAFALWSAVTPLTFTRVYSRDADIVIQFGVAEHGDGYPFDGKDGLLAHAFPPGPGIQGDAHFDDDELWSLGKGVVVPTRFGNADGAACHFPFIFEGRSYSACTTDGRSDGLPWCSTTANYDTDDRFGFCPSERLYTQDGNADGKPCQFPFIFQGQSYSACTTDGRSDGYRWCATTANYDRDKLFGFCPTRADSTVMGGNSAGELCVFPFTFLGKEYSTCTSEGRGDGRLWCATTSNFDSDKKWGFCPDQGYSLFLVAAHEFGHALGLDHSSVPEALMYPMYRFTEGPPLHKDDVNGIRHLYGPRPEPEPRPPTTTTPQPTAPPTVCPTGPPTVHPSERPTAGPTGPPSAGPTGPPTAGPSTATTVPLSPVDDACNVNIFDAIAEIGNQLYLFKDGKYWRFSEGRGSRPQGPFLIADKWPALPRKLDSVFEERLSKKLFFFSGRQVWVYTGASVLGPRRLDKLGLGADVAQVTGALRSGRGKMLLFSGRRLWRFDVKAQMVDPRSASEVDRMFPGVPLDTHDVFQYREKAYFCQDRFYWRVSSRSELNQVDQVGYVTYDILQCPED

SMILES	IC50 [1] [µM]	IC50 [2] [µM]	IC50 [3] [µM]	IC50 [4] [µM]
CC(C)(C)c1ccc(-c2ccc(S(=O)(=O)N3CCSC(C)(C)[C@@H]3C(=O)O)cc2)cc1 [Example 49, (S)-4-(4′-tert-Butyl-biphenyl-4-sulfonyl)-2,2-dimethyl-thiomorpholine-3-carboxylic acid]	0.23	1.5	0.061	0.039
CC1(C)SCCN(S(=O)(=O)c2ccc(-c3ccc(Cl)cc3)cc2)[C@H]1C(=O)O [Example 29, (S)-4-(4′-Chloro-biphenyl-4-sulfonyl)-2,2-dimethyl-thiomorpholine-3-carboxylic acid]	> 100	> 100	> 100	> 100
CC1(C)SCCN(S(=O)(=O)c2ccc(-c3ccc4c(c3)OCO4)cc2)[C@H]1C(=O)O [Example 33, (S)-4-(4-1,3-Benzodioxol-5-yl-benzenesulfonyl)-2,2-dimethyl-thiomorpholine-3-carboxylic acid]	0.0185	3.15	0.0443	0.0148
CC1(C)SCCN(S(=O)(=O)c2ccc(-c3cccc([N+](=O)[O-])c3)cc2)[C@H]1C(=O)O [Example 27, (S)-2,2-Dimethyl-4-(3′-nitro-biphenyl-4-sulfonyl)-thiomorpholine-3-carboxylic acid]	> 100	> 100	> 100	> 100
Cc1cccc(-c2ccc(S(=O)(=O)N3CCSC(C)(C)[C@@H]3C(=O)O)cc2)c1 [Example 31, (S)-2,2-Dimethyl-4-(3′-methyl-biphenyl-4-sulfonyl)-thiomorpholine-3-carboxylic acid]	> 100	1.57	> 100	> 100
CC1(C)SCCN(S(=O)(=O)c2ccc(-c3ccc(F)c(Cl)c3)cc2)[C@H]1C(=O)O [Example 42, (S)-4-(3′-Chloro-4′-fluoro-biphenyl-4-sulfonyl)-2,2-dimethyl-thiomorpholine-3-carboxylic acid]	0.16	9.15	0.113	0.0289
CC1(C)SCCN(S(=O)(=O)c2ccc(-c3cccc4ccccc34)cc2)[C@H]1C(=O)O [Example 28, (S)-2,2-Dimethyl-4-(4-naphthalen-1-yl-benzenesulfonyl)-thiomorpholine-3-carboxylic acid]	2.07	22.8	2.67	2.2
CC1(C)SCCN(S(=O)(=O)c2ccc(-c3ccc(Cl)s3)cc2)[C@H]1C(=O)O [Example 50, (S)-4-[4-(5-Chloro-thiophen-2-yl)-benzenesulfonyl]-2,2-dimethyl-thiomorpholine-3-carboxylic acid]	0.024	1.5	0.12	0.019
CC(C)c1ccc(-c2ccc(S(=O)(=O)N3CCSC(C)(C)[C@@H]3C(=O)O)cc2)cc1 [Example 44, (S)-4-(4′-Isopropyl-biphenyl-4-sulfonyl)-2,2-dimethyl-thiomorpholine-3-carboxylic acid]	0.015	0.37	0.02	0.0088
CC1(C)SCCN(S(=O)(=O)c2ccc(-c3ccc(F)cc3)cc2)[C@H]1C(=O)O [Example 32, (S)-4-(4′-Fluoro-biphenyl-4-sulfonyl)-2,2-dimethyl-thiomorpholine-3-carboxylic acid]	0.133	4.43	0.145	0.0365
CC1(C)SCCN(S(=O)(=O)c2ccc(-c3ccc(C=O)cc3)cc2)[C@H]1C(=O)O [Example 30, (S)-4-(4′-Formyl-biphenyl-4-sulfonyl)-2,2-dimethyl-thiomorpholine-3-carboxylic acid]	0.042	3.6	0.096	0.0154
Cc1cc(-c2ccc(S(=O)(=O)N3CCSC(C)(C)[C@@H]3C(=O)O)cc2)ccc1F [Example 51, (S)-4-(4′-Fluoro-3′-methyl-biphenyl-4-sulfonyl)-2,2-dimethyl-thiomorpholine-3-carboxylic acid]	0.027	1	0.012	0.01
CC1(C)SCCN(S(=O)(=O)c2ccc(-c3cccc(Cl)c3)cc2)[C@H]1C(=O)O [Example 34, (S)-4-(3′-Chloro-biphenyl-4-sulfonyl)-2,2-dimethyl-thiomorpholine-3-carboxylic acid]	0.187	10.3	0.243	0.0703

Continued, values first:

IC50 [1] [µM]	IC50 [2] [µM]	IC50 [3] [µM]	IC50 [4] [µM]	SMILES
39	–	25.5	9.95	COc1cccc(OC)c1-c1ccc(S(=O)(=O)N2CCSC(C)(C)[C@@H]2C(=O)O)cc1 [Example 60, (S)-4-(2′,6′-Dimethoxy-biphenyl-4-sulfonyl)-2,2-dimethyl-thiomorpholine-3-carboxylic acid]
6.2	–	4.9	0.83	CC1(C)SCCN(S(=O)(=O)c2ccc(-c3cccc(C#N)c3)cc2)[C@H]1C(=O)O [Example 62, (S)-4-(3′-Cyano-biphenyl-4-sulfonyl)-2,2-dimethyl-thiomorpholine-3-carboxylic acid]
3.4	49	2.9	0.763	CC(=O)c1cccc(-c2ccc(S(=O)(=O)N3CCSC(C)(C)[C@@H]3C(=O)O)cc2)c1 [Example 61, (S)-4-(3′-Acetyl-biphenyl-4-sulfonyl)-2,2-dimethyl-thiomorpholine-3-carboxylic acid]
0.0088	0.54	0.013	0.0045	CC1(C)SCCN(S(=O)(=O)c2ccc(-c3ccc(C(F)(F)F)cc3)cc2)[C@H]1C(=O)O [Example 57, (S)-2,2-Dimethyl-4-(4′-trifluoromethyl-biphenyl-4-sulfonyl)-thiomorpholine-3-carboxylic acid]
0.134	6.3	0.425	0.082	CC1(C)SCCN(S(=O)(=O)c2ccc(-c3cccc(F)c3)cc2)[C@H]1C(=O)O [Example 58, (S)-4-(3′-Fluoro-biphenyl-4-sulfonyl)-2,2-dimethyl-thiomorpholine-3-carboxylic acid]
68	–	62.5	21	CC1(C)SCCN(S(=O)(=O)c2ccc(-c3ccccc3C=O)cc2)[C@H]1C(=O)O [Example 63, (S)-4-(2′-Formyl-biphenyl-4-sulfonyl)-2,2-dimethyl-thiomorpholine-3-carboxylic acid]
0.013	0.52	0.036	0.014	Cc1ccc(-c2ccc(S(=O)(=O)N3CCSC(C)(C)[C@@H]3C(=O)O)cc2)s1 [Example 52, (S)-2,2-Dimethyl-4-[4-(5-methyl-thiophen-2-yl)-benzenesulfonyl]-thiomorpholine-3-carboxylic acid]
8.8	59	7.7	8.9	COc1cc(-c2ccc(S(=O)(=O)N3CCSC(C)(C)[C@@H]3C(=O)O)cc2)cc(OC)c1OC [Example 55, (S)-2,2-Dimethyl-4-(3′,4′,5′-trimethoxy-biphenyl-4-sulfonyl)-thiomorpholine-3-carboxylic acid]
0.81	18	1.1	1.5	CC1(C)SCCN(S(=O)(=O)c2ccc(-c3ccc(Cl)cc3Cl)cc2)[C@H]1C(=O)O [Example 56, (S)-4-(2′,4′-Dichloro-biphenyl-4-sulfonyl)-2,2-dimethyl-thiomorpholine-3-carboxylic acid]
